From patent US20150031686A1, “PHENYL-OXAZOLYL DERIVATIVES, PREPARATION METHOD THEREOF, AND RELATED APPLICATION OF THE PHENYL-OXAZOLYL DERIVATIVES AS AN IMPDH INHIBITOR” (INSTITUTE OF MEDICINAL BIOTECHNOLOGY, CHINESE ACADEMY OF …, priority 2012, published 2015)
≈ marks a conversion by molar mass, not a printed value.

Test system: Coxsackie virus type B3 (COX-B3)
Assay: Anti-Coxsackie virus type B3 (COX-B3) activity, CPE in Vero cells
Assay type: cell-based
Details: Reed-Muench
Protocol: With Vero (African green monkey kidney) cells as viral hosts, inhibitory effects of the compounds of present invention on the grades of pathological lesions by coxsackievirus B3 (COX-B3), B6 (COX-B6) viruses in Vero cells were determined. The measured results of viral inhibitory activity of the compounds are shown in Table 3 and Table 4; wherein RBV is the control drug ribavirin. The inhibitory activities of the measured compounds against coxsackievirus B3, B6 were stronger than the control.
Screening of Anti-B3, B6 Type Coxsackie Viruses (COX-B3, COX-B6) Activity of the Samples
Prepare stock solutions of COX-B3 (or COX-B6) virus strains as well as tested compounds in DMSO before use. Before tests, dilute the stock solution with culture solution into a certain concentration and then dilute 3 times to make a total of eight dilutions. Use ribavirin (RBV) as positive control. Test procedures are as follows: seed Vero cells into 96-well culture plates, infect with 10^−5 Coxsackie virus of B3 (or B6) type, 24 hours later; adsorb subsequently for 2 hours, then discard the virus solution, add in the sample compounds and the positive control according to the abovementioned dilutions, set cell control wells and virus control wells simultaneously. When the cytopathic effect (CPE) of cells in the virus control wells reach 4+, observe CPE of the cells in each group. Use Reed-Muench method to calculate 50% inhibitory concentration (IC50) of the sample compounds against coxsackie virus B3 (or B6) type.

| SMILES | IC50 [µg/mL] |
| --- | --- |
| COc1cc(NS(=O)(=O)c2ccc(C)cc2)ccc1-c1cnco1 [Compound 69] | 0.98 (≈ 2.85 µM) |
| COc1cc(NCCCS(=O)(=O)O)ccc1-c1cnco1 [Compound 70, 3-[3-methoxy-4-(oxazol-5-yl)-anilino]-1-propanesulfonic acid] | 155 (≈ 497 µM) |
| COc1cc(NCCc2ccc(C)s2)ccc1-c1cnco1 [Compound 72, N-[2-(5-methylthien-2-yl)-ethyl]-3-methoxy-4-(oxazol-5-yl) aniline] | 0.44 (≈ 1.4 µM) |
| COc1cc(NCCc2ccc(Br)s2)ccc1-c1cnco1 [Compound 73, N-[2-(5-bromothien-2-yl)-ethyl]-3-methoxy-4-(oxazol-5-yl) aniline] | 0.35 (≈ 0.923 µM) |
| COc1cc(NCCc2noc3ccccc23)ccc1-c1cnco1 [Compound 74, N-(1,2-benzisoxazol-3-ylethyl)-3-methoxy-4-(oxazol-5-yl) aniline] | 0.63 (≈ 1.88 µM) |
| COc1cc(NCc2cccc3c2oc2ccccc23)ccc1-c1cnco1 [Compound 75, N-(dibenzofuran-4-ylmethyl)-3-methoxy-4-(oxazol-5-yl) aniline] | 0.45 (≈ 1.21 µM) |
| COc1cc(CNCc2ccc(C)s2)ccc1-c1cnco1 [Compound 76, N-(5-methylthien-2-ylmethyl)-3-methoxy-4-(oxazol-5-yl) benzylamine] | 0.24 (≈ 0.763 µM) |
| COc1cc(CNCc2ccc(Cl)s2)ccc1-c1cnco1 [Compound 77, N-(5-chlorothien-2-ylmethyl)-3-methoxy-4-(oxazol-5-yl) benzylamine] | 0.35 (≈ 1.05 µM) |
| COc1cc(CNCc2cccc3nonc23)ccc1-c1cnco1 [Compound 78, N-(benzo[1,2,5]oxadiazol-4-ylmethyl)-3-methoxy-4(oxazol-5-yl) benzylamine] | 0.36 (≈ 1.07 µM) |
| Cc1ccc(-c2cnco2)cc1NCc1c(O)ccc2ccccc12 [Compound 79, 1-(2-methyl-5-oxazol-5-ylanilino) methyl-naphthol-2] | 0.35 (≈ 1.06 µM) |
| COc1cc(N(CCc2cc3ccccc3s2)C(=O)C(C)Br)ccc1-c1cnco1 (stereo not shown) [Compound 80, N-(2-benzothien-2-yl-ethyl)-N-(3-methoxy-4-oxazol-5-yl)-2-bromopropionamide] | 0.24 (≈ 0.494 µM) |
| COc1cc(NCCc2nnc3ccccc3c2Cl)ccc1-c1cnco1 [Compound 81, N-[2-(4-chlorocinnolin-3-yl)-ethyl]-3-methoxy-4-(oxazol-5-yl) aniline] | 0.29 (≈ 0.761 µM) |
| COc1cc(NCCc2cc3cc(Cl)ccc3s2)ccc1-c1cnco1 [Compound 82, N-[2-(5-chlorobenzathien-2-yl)-ethyl]-3-methoxy-4-(oxazol-5-yl) aniline] | 0.33 (≈ 0.857 µM) |
| COc1cc(NCC2=C(Cl)c3cc(Cl)ccc3SC2)ccc1-c1cnco1 [Compound 83, N-(4,6-dichloro-2H-sulfurbenzopyran-3-ylmethyl)-3-methoxy-4-(oxazol-5-yl) aniline] | 0.42 (≈ 1 µM) |
| COc1cc(CN(Cc2cc3cc(C)ccc3s2)S(C)(=O)=O)ccc1-c1cnco1 [Compound 84, N-(3-methoxy-4-oxazol-5-yl-benzyl)-N-(5-methyl-benzothien-2-ylmethyl)-methylsulfonamide] | 0.34 (≈ 0.768 µM) |
| COc1cc(CNCc2csc3ccccc23)ccc1-c1cnco1 [Compound 85, N-(benzothien-3-ylmethyl)-3-methoxy-4-(oxazol-5-yl) benzylamine] | 0.44 (≈ 1.26 µM) |
| COc1cc(CNCc2ccc3c(cnn3C)c2)ccc1-c1cnco1 [Compound 86, N-(1-methyl-1H-indazole-5-methyl)-3-methoxy-4-(oxazol-5-yl) benzylamine] | 0.34 (≈ 0.976 µM) |
| COc1cc(CN(C)Cc2csc3ccc(Cl)cc23)ccc1-c1cnco1 [Compound 87, N-methyl-N-(5-chlorobenzothien-3-ylmethyl)-3-methoxy-4-(oxazol-5-yl) benzylamine] | 0.35 (≈ 0.877 µM) |

Results, then the molecule that gave them:

| IC50 [µg/mL] | SMILES |
| --- | --- |
| 0.36 (≈ 0.866 µM) | COc1cc(NCc2ccc3c(c2)Sc2ccccc2N3C)ccc1-c1cnco1 [Compound 88, N-(10-methyl-10H-phenothiazin-3-ylmethyl)-3-methoxy-4-oxazol-5-yl aniline] |
| 0.26 (≈ 0.815 µM) | Cc1ccc(CNCc2ccc(-c3cnco3)c(Cl)c2)s1 [Compound 89, N-(5-methylthien-2-ylmethyl)-3-chloride-4-oxazol-5-yl benzylamine] |
| 0.26 (≈ 0.665 µM) | Clc1cc(NCc2cccc3c2sc2ccccc23)ccc1-c1cnco1 [Compound 90, N-dibenzothien-4-ylmethyl-3-chloro-4-oxazol-5-yl aniline] |
| 0.28 (≈ 0.785 µM) | Clc1cc(CNCc2cccc3nsnc23)ccc1-c1cnco1 [Compound 91, N-(benzo[1,2,5]-thiadiazol-4-ylmethyl)-3-chloro-4-oxazol-5-yl benzylamine] |
| 0.63 (≈ 1.8 µM) | COc1cc(NCC2=COc3ccc(O)cc3C2)ccc1-c1cnco1 [Compound 92, 3-(3-methoxy-4-oxazol-5-ylanilino) methyl-4-H-benzopyran-6-ol] |
| 0.88 (≈ 2.42 µM) | COc1cc(CNCc2ccc(Br)o2)ccc1-c1cnco1 [Compound 93, N-(5-bromofuran-2-ylmethyl)-3-methoxy-4-(oxazol-5-yl) benzylamine] |
| 0.68 (≈ 1.72 µM) | COc1cc(NCc2c3ccccc3nc3ccc(C)cc23)ccc1-c1cnco1 [Compound 94, N-(2-methylacridine-9-methyl)-3-methoxy-4-(oxazol-5-yl) aniline] |
| 0.55 (≈ 1.45 µM) | COc1cc(NCc2c3ccccc3cc3ccccc23)ccc1-c1cnco1 [Compound 95, N-(anthracen-9-ylmethyl) 3-methoxy-4-(oxazol-5-yl) aniline] |
| 1.43 (≈ 4.76 µM) | COc1cc(NCc2ccc(CO)o2)ccc1-c1cnco1 [Compound 96] |
| 0.23 (≈ 0.585 µM) | CCc1sc(CNc2ccc(-c3cnco3)c(OC)c2)cc1Br [Compound 97, N-(4-bromo-5-ethylthien-2-ylmethyl) 3-methoxy-4-(oxazol-5-yl) aniline] |
| 0.88 (≈ 2.62 µM) | COc1cc(NS(=O)(=O)c2cccs2)ccc1-c1cnco1 [Compound 98, N-(thien-2-ylsulfonyl)-3-methoxy-4-oxazole-5-yl aniline] |
| 0.78 (≈ 1.88 µM) | COc1cc(NS(=O)(=O)c2cc([N+](=O)[O-])c(Cl)s2)ccc1-c1cnco1 [Compound 99, N-(5-chloro-4-nitro-thien-2-ylsulfonyl)-3-methoxy-4-oxazole-5-yl aniline] |
| 0.46 (≈ 1.43 µM) | COc1cc(NCc2ccc3c(c2)CCO3)ccc1-c1cnco1 [Compound 100, N-(2,3-dihydobenzofuro-5-ylmethyl)-3-methoxy-4-(oxazol-5-yl) aniline] |
| 0.48 (≈ 1.46 µM) | COc1cc(NCc2ccc(C(C)=O)s2)ccc1-c1cnco1 [Compound 101, N-(5-acetylthien-2-ylmethyl)-3-methoxy-4-oxazole-5-yl aniline] |
| 0.35 (≈ 1.05 µM) | COc1cc(NCc2ccc(SC)s2)ccc1-c1cnco1 [Compound 102, N-(5-methylthiothien-2-ylmethyl)-3-methoxy-4-(oxazol-5-yl) aniline] |
| 0.4 (≈ 1.04 µM) | COc1cc(NCc2ccc(N3CCC(O)CC3)s2)ccc1-c1cnco1 [Compound 103] |
| 0.45 (≈ 1 µM) | COc1cc(NCc2ccc(-c3ccc(C(F)(F)F)cc3Cl)o2)ccc1-c1cnco1 [Compound 104, N-[5-(2-chloro-4-trifluoromethylphenyl)furan-2-ylmethyl]-3-methoxy-4-oxazol-5-yl aniline] |
| 1.23 (≈ 4.15 µM) | COc1cc(NC/C=C/c2ccoc2)ccc1-c1cnco1 [Compound 105, N-(furan-3-ylpropen-1-yl)-3-methoxy-4-oxazol-5-yl aniline] |
| 0.44 (≈ 1.31 µM) | COc1cc(NCc2ccc3sccc3c2)ccc1-c1cnco1 [Compound 106, N-(benzothien-5-ylmethyl)-3-methoxy-4-oxazol-5-yl aniline] |
